{"source": "paper PMC6225302", "about": "“Depsidone Derivatives and a Cyclopeptide Produced by Marine Fungus Aspergillus unguis under Chemical Induction and by Its Plasma Induced Mutant” (Molecules : A Journal of Synthetic Chemistry and Natural …, 2018)", "test_system": "brine shrimp (Artemia salina) larva", "test": "Brine shrimp larva lethality test", "assay_type": "in vivo", "conditions": "brine shrimp larvae, 24 h at 28 °C; read-out: Larvicidal Activity (LC50)", "experimental": "Compounds 1‒10 were evaluated for larvicidality using the brine shrimp (Artemia salina) larva lethality test. 0.15 g of frozen eggs of brine shrimp larva (purchased from Aijia Aquarium Co., Zhanjiang, China) were activated at room temperature for 12 h. After activation, eggs were added to 1 L of artificial seawater (3% sea salt), ventilated with air for 420 mL/min, then kept at a brightness at 1000 lux and incubated at 28 °C for 24 h. After incubation, the larvae were induced to the top of the separating funnel by phototaxis, and the dead ones on bottom were discharged. Then, in each well of the 96-well plate, 1 μL of test compounds (in DMSO) with different concentrations and 99 μL of seawater containing 20‒30 live larvae were added. After incubation under light at 28 °C for 24 h, recorded the numbers of dead larvae. Finally, 10 μL of the Lucus reagent were added into each well and the total number of brine shrimp larva in the well were counted. DMSO and Hg(NO3)2 were used as blank control and positive control, respectively. Lethality rate (%)=(lethality of treatment−lethality of blank control)/survival rate of blank control×100%\nThe brine shrimp larva LC50 value is the concentration required to kill 50% of the larvae. Likewise, the LC50 was calculated using Origin 8.0 plotting and cubic polynomial regression.", "data": [{"smiles": "O=[N+]([O-])[O-].O=[N+]([O-])[O-].[Hg+2]", "note": "[Hg(NO3)2, reference compound]", "values": [{"measurement": "LC50", "result": 77, "unit": "µM"}]}]}
